Tested on: T. cruzi epimastigotes
Experiment: Flow cytometry of apoptosis-like markers in epimastigotes (Hoechst, DiOC6, PI)
Type: cell-based, Trypanosoma cruzi
Settings: 10 µM, 24 h
Experimental: Apoptosis-like markers were analyzed by triple staining using 3,3′-dihexyloxacarbocyanine (DiOC6), propidium iodide (PI), and Hoechst from Thermo Fisher Scientific to determine the change of mitochondrial membrane potential (ΔΨm), cell membrane damage, and impairment of cell cycle, respectively. All readings were performed on a BD FACSCanto II 4/2/2 Sys IVD flow cytometer, and data obtained were analyzed using the FlowJo7.6.2 software. Differences between treatments were determined by a two-way ANOVA for multiple comparisons with 95% significance using GraphPad Prism 8. In all cases, 20 µL of parasites (5 × 10^6/mL) were stained per treatment with 300 µL of Hanks’ balanced saline solution (HBSS) and 10 µL of the staining mix containing […], 0.5 µL of 70 nM DiOC6, and 0.5 µL of 10 mg/mL Hoechst. Subsequently, parasites were incubated at room temperature for 15 min until reading.
T. cruzi epimastigotes in exponential growth phase were used to submit the parasites to a treatment under nutritional stress and further challenging the culture with the inhibitor UBMC-4 and the control drug bz. Nutritional stress was induced by starving the parasites in PBS. Parasites were grown either in complete RPMI medium or PBS (with and without 10 µM UBMC-4) for 24 h at 28 °C. Three independent biological replicates were analyzed per treatment. The experiments were performed in 24-well plates at an initial concentration of 1 × 10^7 total parasites in 2 mL/well. Parasites were centrifuged at 1800 RCF for 5 min, washed once with PBS buffer, and then resuspended in a final volume of 2 mL for further labeling and flow cytometry.

Oc1ccc(-c2nc(-c3ccc4sc5ccccc5c4c3)c(-c3ccccc3)[nH]2)cc1 [UBMC-4, 4-(4-dibenzo-[b,d]-thien-2-yl-5-phenyl-1H-imidazol-2-yl)phenol]
changes in apoptosis-like markers (normal culture conditions): no changes in apoptosis-like markers | DNA fragmentation (hypodiploid, Sub G0/G1), % of population (nutritional stress): up to 39.4% | cell membrane damage (PI), % of population (nutritional stress): 38.4% | mitochondrial depolarization (DiOC6), % of population (nutritional stress): 99.9%

Source: article PMC9229894, “In Silico, In Vitro, and Pharmacokinetic Studies of UBMC-4, a Potential Novel Compound for Treating against Trypanosoma cruzi” (Pathogens, 2022)
